Holding throughout (format): biochemical
The target in test [1] is T1, Aβ 1-42 fibrils (Homo sapiens, UniProt P05067).
T1 construct: purchased Bachem Inc
The experiment in a line: Thioflavin T fluorometry, disruption of pre-formed Aβ 1-42 fibrils (Example 7). The note with it: for % inhibition of Aβ (Thioflavin T fluorometry): 25 μM pre-fibrillized Aβ 1-42, 37° C., 3 days (Table 3). The method, then: In this assay Thioflavin T binds specifically to fibrillar amyloid, and this binding produces a fluorescence enhancement at 485 nm that is directly proportional to the amount of amyloid fibrils formed. The higher the fluorescence, the greater the amount of amyloid fibrils formed (Naki et al., Lab. Invest. 65:104-110, 1991; Levine III, Protein Sci. 2:404-410, 1993; Amyloid: Int. J. Exp. Clin. Invest. 2:1-6, 1995).
(§1) Following 3 days of co-incubation, 50 μl of each incubation mixture was transferred into a 96-well microtiter plate containing 150 μl of distilled water and 50 μl of a Thioflavin T solution (i.e. 500 mM Thioflavin T in 250 mM phosphate buffer, pH 6.8). The fluorescence was read at 485 nm (444 nm excitation wavelength) using an ELISA plate fluorometer after subtraction with buffer alone or compound alone, as blank).

Test [2] deals with T2, α-synuclein fibrils (Homo sapiens, UniProt P37840).
T2 construct: purchased rPeptide
The experiment in a line: Thioflavin T fluorometry, disruption of pre-formed α-synuclein fibrils (Example 12). The settings on record: 3 days; for % Inhibition α-synuclein (result ± S.D.), Thioflavin T fluorometry: 30 μg pre-fibrillized α-synuclein, 37° C. The method, then: In this assay, Thioflavin T binds specifically to α-synuclein fibrils, and this binding produces a fluorescence enhancement at 485 nm that is directly proportional to the amount of α-synuclein fibrils present. The higher the fluorescence, the greater the amount of α-synuclein fibrils present (Naki et al, Lab. Invest. 65:104-110, 1991; Levine III, Protein Sci. 2:404-410, 1993; Amyloid: Int. J. Exp. Clin. Invest. 2:1-6, 1995).
as §1, with “In this study, 30 μg of pre-fibrillized α-synuclein (rPeptide) was incubated at 37° C. for” for “Following”, “days either alone or in the presence of compounds DC-0051-F1, F2, F3, F4, F5, F6 or EDTA (at α-synuclein:test compound weight ratios of 1:1, 1:0.1, 1:0.01 or 1:0.001). Following 3-days” for “days”, “blank.” for “blank).”

Test [3] has as its target T1, Aβ 1-42 fibrils. The experiment in a line: Congo red binding assay, Aβ 1-42 fibrils (Example 11). The settings on record: 3-day incubation. The procedure:
(§2) In the Congo red binding assay, the ability of a test compound to alter amyloid (in this case, Aβ) binding to Congo red is quantified. In this assay, Aβ 1-42 and test compounds were incubated for 3 days and then vacuum filtered through a 0.2 μm filter. The amount of Aβ 1-42 retained in the filter was then quantitated following staining of the filter with Congo red. After appropriate washing of the filter, any lowering of the Congo red color on the filter in the presence of the test compound (compared to the Congo red staining of the amyloid protein in the absence of the test compound) was indicative of the test compound's ability to diminish/alter the amount of aggregated and congophilic Aβ.
In one study, the ability of Aβ fibrils to bind Congo red in the absence or presence of increasing amounts of the compounds or EDTA (at Aβ:test compound weight ratios of 1:1, 1:0.1, 1:0.01 or 1:0.001) was determined.

The target in test [4] is T1, Aβ 1-42 fibrils. The experiment in a line: Congo red binding assay, Aβ 1-42 fibrils (Example 6). The note with it: 3-day incubation. The procedure:
In the Congo red binding assay the ability of a given test compound to alter amyloid (Aβ 1-42 fibrils, IAPP fibrils or NAC fibrils) binding to Congo red was quantified. In this assay, Aβ 1-42 fibrils, IAPP fibril or NAC fibrils and test compounds were incubated for 3 days and then vacuum filtered through a 0.2 μm filter. The amount of Aβ 1-42 fibrils, IAPP fibrils or NAC fibrils retained in the filter was then quantitated following staining of the filter with Congo red. After appropriate washing of the filter, any lowering of the Congo red color on the filter in the presence of the test compound (compared to the Congo red staining of the amyloid protein in the absence of the test compound) was indicative of the test compound's ability to diminish/alter the amount of aggregated and congophilic Aβ 1-42 fibrils, IAPP fibrils or NAC fibrils.
as §2, with “binding assay” for “binding assay,”, “then quantified” for “then quantitated”
In one study, the ability of Aβ fibrils to bind Congo red in the absence or presence of increasing amounts of the compounds or EDTA (at Aβ:test compound weight ratios of 1:0.001, 1:0.01, 1:0.1 and 1:1) was determined.

[5] abbreviates: Aβ:test compound wt/wt ratio 1:0.001.
The mark [6] stands for this setting: Aβ:test compound wt/wt ratio 1:0.01.
[7] abbreviates: Aβ:test compound wt/wt ratio 1:0.1.
Setting [8] is: Aβ:test compound wt/wt ratio 1:1.

SMILES strings stand for the structures.

T1 sequence (P05067 672-713): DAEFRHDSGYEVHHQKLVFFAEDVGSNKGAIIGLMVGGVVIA

Regarding `O=C(O)CN(CCN(CC(=O)O)CC(=O)O)CC(=O)O` [EDTA], the “% inhibition of Aβ (Thioflavin T fluorometry)” value in test [1] (setting [5]) is 10.3 +/− 10.81%; in test [1] (setting [6]) it was 0.0 +/− 2.26%; in test [1] (setting [7]), 0.0 +/− 1.18%; in test [1] (setting [8]) it was 5.0 +/− 11.39%. Moreover, the “disruption/disassembly of preformed Aβ 1-42 fibrils, in words” value in test [1] (Thioflavin T fluorometry, all concentrations tested, 3 days) is “no significant inhibition/disruption”. Also, the “disruption/disassembly of pre-formed α-synuclein fibrils, in words” value in test [2] (Thioflavin T fluorometry, all concentrations tested) is “no significant inhibition”. Moreover, the “% Inhibition α-synuclein (result ± S.D.), Thioflavin T fluorometry” value in test [2] (α-synuclein:test compound wt/wt ratio 1:0.001) is 0.0 ± 4.11%; in test [2] (α-synuclein:test compound wt/wt ratio 1:0.01), 0.0 ± 17.06%; in test [2] (α-synuclein:test compound wt/wt ratio 1:0.1), 0.0 ± 6.97%; in test [2] (α-synuclein:test compound wt/wt ratio 1:1) it was 0.0 ± 2.03%. Further, the “% Inhibition Aβ (result ± S.D.), Congo red binding” value amounted to 1.2 ± 7.95% in test [3] (setting [5]), 8.4 ± 4.00% in test [3] (setting [6]), 0.0 ± 6.83% in test [3] (setting [7]) and 8.4 ± 2.74% in test [3] (setting [8]). Further, the “inhibition of Aβ 1-42 fibril binding to Congo red, in words” value in test [3] (all concentrations tested) and in test [4] was “no significant inhibition” each time. For the same molecule, the “% inhibition of Aβ (Congo red binding)” value in test [4] (setting [5]) was 0.0 ± 0.62%; in test [4] (setting [6]), 0.0 +/− 0.49%; in test [4] (setting [7]), 0.0 ± 0.76%; in test [4] (setting [8]) it was 3.9 +/− 1.37%.
